{
  "source": "patent US8373021B2",
  "about": "“Improving disease resistance in plants by introducing transcription factor gene” (priority 2005, dated 2013)",
  "type_in_all_cases": "in vivo",
  "key": {"[1]": {"system": "PR1b and OsWRKY45 expression", "assay": "Induction of PR1b and OsWRKY45 expression by BTH in NH1 RNAi rice plants (RT-PCR)", "details": "rice plants in which NH1 was suppressed by RNAi", "description": "FIG. 10 is composed of photographs depicting OsWRKY45 expression in rice plants in which the expression of NH1, a rice NPR1 homolog, is suppressed by RNAi. Two lines (#7 and #14) in which the NH1 expression was suppressed by RNAi were BTH-treated or mock-treated to examine the induction of expression of PR1b and OsWRKY45 by RT-PCR.\nRecently, it was reported that in Arabidopsis thaliana, the resistance to a filamentous fungus, Erysiphe cichoracearum, was enhanced by the introduction of WRKY70, a WRKY transcription factor (Li, J., Brader, G., Kariola, T., and Palva, E. T. (2006). WRKY70 modulates the selection of signaling pathways in plant defense. Plant J. 46, 477-491). […] From these findings, WRKY70 is thought to be a transcription factor downstream of NPR1. Thus, for comparison of functions between WRKY70 and OsWRKY45, the induction of PR1b and OsWRKY45 expressions by BTH was examined in rice plants in which NH1, a rice NPR1 homolog (Chern, M., Fitzgerald, H. A., Canlas, P. E., Navarre, D. A., and Ronald, P. C. (2005). Overexpression of a rice NPR1 homolog leads to constitutive activation of defense response and hypersensitivity to light. Mol. Plant-Microbe Int. 18, 511-520) was suppressed by RNAi."}, "[2]": {"system": "blast disease fungus (race 007)", "assay": "Blast disease assay after BTH treatment in non-transformed and OsWRKY45 RNAi rice plants", "details": "0.5 mM BTH sprayed at 4-leaf stage, inoculated 2 days later, counted after 7 days", "description": "FIG. 8 is a graph depicting the results of inducing the blast disease resistance by BTH in rice plants in which OsWRKY45 expression is suppressed. A blast disease fungus was inoculated into non-transformed rice plants, either treated or not treated with BTH, and BTH-treated rice plants in which OsWRKY45 expression was suppressed. After seven days, the number of blotches on the 10-cm long central part of leaf blades was counted in each plant.\nIn order to examine the effect of suppression of OsWRKY45 expression on the blast disease resistance induced in rice by BTH treatment, non-transformed rice plants and transformed lines of rice plant in which the suppression of OsWRKY45 expression by RNAi had been confirmed were sprayed with 0.5 mM BTH at the 4-leaf stage, and then inoculated with a compatible blast disease fungus (race 007) 2 days later. After 7 days, the blotches present on the 10-cm long central part of leaf blades were counted in each plant body."}, "OsWRKY45": {"system": "OsWRKY45", "assay": "Induction of OsWRKY45 gene expression by BTH treatment (Northern blot analysis)", "details": "rice seedlings 3.5-leaf stage, 0.5 mM BTH, leaves", "experimental": "FIG. 1 depicts the induction of OsWRKY45 gene expression by BTH treatment. Rice plants at the 3.5-leaf stage were treated with BTH, and RNAs were prepared from leaves over time and subjected to Northern analysis. For comparison, two types of PR genes (PR1b and PBZ1) were also examined for induction of expression.\nIn order to detect a transcription factor gene inducibly expressed by BTH, rice seedlings (3.5-leaf stage) on day 10 after seeding were treated with 0.5 mM BTH (in 0.01% Tween 20/0.5% acetone), and the RNAs prepared over time (12, 24, 72, and 120 hours after the treatment) from BTH-treated and mock-treated rice leaves were subjected to DNA microarray analysis with the rice 22K array (Agilent). As a result, a WRKY transcription factor gene (OsWRKY45, AK066255; SEQ ID NOs: 1 and 2) that is inducibly expressed by BTH treatment was found."}},
  "data": [
    {"smiles": "c1ccc2snnc2c1", "note": "[BTH, benzothiadiazole]", "values": [
      {"measurement": "induction of OsWRKY45 expression by BTH", "setting": "[1]", "result": "not affected at all"},
      {"measurement": "induction of PR1b expression by BTH", "setting": "[1]", "result": "completely lost"},
      {"measurement": "blotches on the 10-cm long central part of leaf blades", "setting": "[2]; non-transformed rice", "result": "Almost no blotches were observed"},
      {"measurement": "blotches on the 10-cm long central part of leaf blades", "setting": "[2]; rice with OsWRKY45 expression suppressed by RNAi", "result": "nearly equal number of blotches to that in non-treated, non-transformed rice plants"},
      {"measurement": "time after BTH treatment within which OsWRKY45 expression was induced", "setting": "OsWRKY45", "result": "≤ 3", "unit": "h"}
    ]}
  ]
}
